# Earlier results, collected in patent US20240033249A1, “Drug Implants Containing Darolutamide and Methods of Use Thereof” (The Regents of the University of California, priority 2022, published 2024).
# Settings: assuming 600 mg daily dose; systemic (e.g., oral) administration
smiles,measurement,value
CC(O)c1cc(C(=O)N[C@@H](C)Cn2ccc(-c3ccc(C#N)c(Cl)c3)n2)[nH]n1 (stereo partly shown) [Darolutamide],steady state blood plasma concentration of Darolutamide,about 4.79 mg/L
